Assays:
GLP1R [1] = target: T1, GLP1R (Homo sapiens, UniProt P43220); assay: GLP1R cAMP HTRF assay, HEK293/GLP-1R/CRE/Luc (HEK293T cells); format: cell-based; conditions: read-out: EC50
In short: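 cAMP accumulation via HTRF after 30 min, 37 °C exposure of 1000 receptor-expressing cells/well to compound (0.5% DMSO final) in IBMX (500 μM)/0.1% BSA DPBS.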

GLP1R [2] = target: T1, GLP1R; assay: GLP-1R/β-Arrestin recruitment assay (PathHunter eXpress GLP1R CHO-K1 β-Arrestin GPCR Assay); format: cell-based; design: host or cells: PathHunter CHO-K1 GLP1R β-Arrestin cells; conditions: averaged Bmax, percentage of control GLP-1 (7-37), highest concentration tested
Source text: GLP-1R agonist activity with respect to β-arrestin recruitment can be determined with a cell-based functional assay using PathHuntcr eXpress GLP1R CHO-K1 β-Arrestin GPCR Assay kit (DiscovcrX Cat #93-0300E2CP0M).
The PathHunter β-Arrestin GPCR assay technology utilizes a β-galactosidase (β-gal) enzyme that is split into two fragments, the smaller Enzyme Donor (ED) and the larger Enzyme Acceptor (EA). These fragments can be fused to two proteins that may interact with each other, such as EA-β-Arrestin and ED-GLP-1R. The fusions can be stably expressed in a test cell line, such as the PathHunter CHO-K1 GLP1R β-Arrestin cells described below.
Independently, these fragment fusions have no β-gal activity; however, in solution or in a living cell, they can be brought together and complement to form an active β-gal enzyme due to the interaction between the fused proteins, thus generating a chemiluminescent signal in the presence of a suitable β-gal substrate.
In this experiment, PathHunter CHO-K1 GLP1R β-Arrestin cells from the assay kit were plated at a density of 1000 or 2000 cells/20 μl/well in a 384-well white/clear bottom plates (Greiner Cat #781098). Frozen cells were quickly thawed and 10 mL of cell plating medium (provided by the kit) was added to thawed cells. Cells were stored in a 37° C. incubator under 5% CO2 and kept for approximately 48 hours until ready to ran the assay.
Reference and test compounds were dissolved in 100% DMSO. 5× concentration of an agonist was prepared in serum free DMEM (Thermo Cat #11965). 5 μL of this solution was added to 20 μL cell medium in assay plate for a final top concentration of 10 μM. Plates were then incubated at 37° C. under 5% CO2 for 90 min.
(§1) Following 90 min incubation, detection reagents were made up by combining 1 part Galacton Star Substrate with 5 parts Emerald II™ Solution, and 19 parts of PathHunter Cell Assay Buffer, respectively. 12.5 μL detection reagent was added to each well. The plates were then incubated at room temperature in dark for 60 min. Plates were then read on Envision for 0.1 sec/well.
(§2) EC50 determinations were made from agonist dose-response curves analyzed with a curve fitting program using a 4-parameter logistic dose response equation.
Cells were plated at a density of 1000 or 2000 cells/20 μL/well. Frozen cells were quickly thawed and added to 10 mL of cell plating medium. Cells were stored in a 37° C. incubator under 5% CO2 and left for approximately 48 hours until ready to run the assay.
• 1) Reference agonist compound GLP1 (7-37): dissolved with DMSO to make 1 mM stock solutions, aliquoted and stored at −80° C. • 2) Test compounds (such as the compounds of the invention) came solubilized in 100% DMSO.
Prepare 10× concentration of an agonist in serum free DMEM, and add all solutions into the compound plate. 2.5 μL of this solution was added to 20 μL cell medium in assay plate for a final top concentration of 10 μM. Plates were incubated at 37° C. under 5% CO2 for 30 min. An additional 2.5 μL of Buffer was added to the entire plate for agonist mode and incubated at 37° C. for another 90 min.
Following 90 min incubation, detection reagents were made up as described. 12.5 μL was added to all wells. The plates were then incubated at room temperature in dark for 60 min. Plates were then read on Envision for 0.1 sec/well.
Data analysis: GraphPad Prism 6 was used for establishment of progression curve. EC50S or IC50s were determined by 4-parameter logistic dose response equation.

GLP1R [3] = target: T1, GLP1R; assay: β-Arrestin-mediated GLP1R internalization assay (PathHunter engineered U2OS cells); format: cell-based; design: host or cells: PathHunter engineered U2OS cells; conditions: averaged Bmax, percentage of control GLP-1 (7-37), highest concentration tested
Source text: A similar assay can also be used to assess the extent of signal attenuation due to GLP-1R internalization (the β-Arrestin Internalization Assay). In this assay, activated GLP1R Internalization cells were engineered to co-express an untagged GLP1R, Enzyme Acceptor (EA) tagged β-Arrestin, and a ProLink™ (PK) tag localized to the endosomes. Activation of the GLP1R induces β-Arrestin recruitment, which leads to internalization of the Receptor/Arrestin-EA complex in PK-tagged endosomes. This forces complementation of the two β-galactosidase enzyme fragments (EA and PK) to form a functional enzyme that hydrolyzes substrate to generate a chemiluminescent signal. These cells have been modified to prevent long term propagation and expansion using a proprietary compound that has no apparent effect on assay performance.
Specifically, PathHunter engineered U2OS cells from the assay kit (Cat #93-0724E3CP0L) were plated at a density of 2000 cells/20 μL/well in a 384-well white/clear bottom plates (Greiner Cat #781098). Frozen cells were quickly thawed and 10 mL of cell plating medium (provided by the kit) was added to thawed cells. Cells were stored in a 37° C. incubator and kept for approximately 48 hours until ready for the assay.
Reference and test compounds were dissolved in 100% DMSO. 5× concentration of an agonist was prepared in serum free DMEM (Thermo Cat #11965). 5 μL of this solution was added to 20 μL cell medium in assay plate for a final top concentration of 10 μM. Plates were incubated at 37° C. for 180 min.
as §1, with “180” for “90”, “temperature” for “temperature in dark”
as §2

[4] = Monkey oral pharmacokinetic (PK) study, non-naïve Cynomolgus male monkeys; format: in vivo; conditions: Dose 2
Description: Appropriate volumes of vehicles (e.g., 2% Tween 80 (v:v) and 0.5% MC (w:v) in saline or 0.5% MC (w:v) in water were then added into the mortar containing the ground compounds, and the mixture was then grinded with a pestle until a homogeneous paste was formed. Additional appropriate volumes of vehicles were added into the mortar containing each compound, and the mixture was grinded further with the pestle until a homogeneous suspension was obtained.
The rest of the vehicle was added to make up the final dosing volume of about 1 mg/mL or 2 mg/mL (i.e., final dosing volume of about 5 mL/kg), and the homogenous suspension was continuously stirred prior to and during the dosing.
Non-naïve Cynomolgus male monkeys (n=3/test article; sourced from Hainan Jingang Biotech Co., Ltd., Nayang Xmtan, Fucheng Town, Qiongshan District, Haikou City, Hainan Province, China); or non-naïve aged, obese, and diabetic male Macaca fascicularis monkeys (n=3/test article, Source: Kunming Biomed International Colony) were used in pre-clinical in vivo studies. All non-naïve Cynomolgus male monkeys were approximately 3 to 5 years old, weighed about 2.5-5 kg, and were within ±20% of the average body weight. All non-naïve aged, obese, and diabetic male Macaca fascicularis monkeys were approximately 12 to 20 years old, weighed about >8-12 kg.
All animals were fasted overnight before dosing, and the food were supplied approximately 4 hours post dose (with free access to water all the time).
Animals were restrained at designated time points for blood sampling. Approximately 500 μL of blood samples was taken via cephalic or saphenous vein into EDTA-K2 tubes. Blood samples were put on wet ice before centrifugation.
For oral administration (PO) of either Dose 1 or Dose 2: blood samples were collected at pre-dose, and at 15 min, 30 min, 1 hr, 2 hr, 4 hr, (6 hr for compounds 19 and 28 with cynomolgus monkeys only), 8 hr, 12 hr, and 24 hr post dose (i.e., 9 or 10 total time points for each compound at each dose).
The blood samples were centrifuged at approximately 2,000-4,000 rpm for about 10-15 minutes at 2-8′C, and each resulting plasma portion was then transferred into an individual tube.
LC-MS/MS methods were developed, and bioanalysis for the test articles in monkey plasma was performed according to the developed LC-MS/MS methods.
Undiluted plasma samples: An aliquot of 20-50 μL plasma sample was mixed with 200 μL of ACN or MeOH containing one of the internal standards (IS, e.g., Diclofenac or Terfenadine). The mixture was then vortexed for about 1-5 min, and centrifuged at about 4,000-5,800 rpm for about 10-15 min. An aliquot of 1 μL supernatant was used for LC-MS/MS analysis.
Pharmacokinetics parameters, including area under the curve (AUC0-t), maximum plasma concentration (Cmax), time to reach maximum plasma concentration (Tmax), oral bioavailability (F %), etc., were calculated using Phoenix software (Version 6.4) and non-compartment model.

[5] = male, cynomolgus monkey, plasma, oral

T1 sequence (P43220 24-463): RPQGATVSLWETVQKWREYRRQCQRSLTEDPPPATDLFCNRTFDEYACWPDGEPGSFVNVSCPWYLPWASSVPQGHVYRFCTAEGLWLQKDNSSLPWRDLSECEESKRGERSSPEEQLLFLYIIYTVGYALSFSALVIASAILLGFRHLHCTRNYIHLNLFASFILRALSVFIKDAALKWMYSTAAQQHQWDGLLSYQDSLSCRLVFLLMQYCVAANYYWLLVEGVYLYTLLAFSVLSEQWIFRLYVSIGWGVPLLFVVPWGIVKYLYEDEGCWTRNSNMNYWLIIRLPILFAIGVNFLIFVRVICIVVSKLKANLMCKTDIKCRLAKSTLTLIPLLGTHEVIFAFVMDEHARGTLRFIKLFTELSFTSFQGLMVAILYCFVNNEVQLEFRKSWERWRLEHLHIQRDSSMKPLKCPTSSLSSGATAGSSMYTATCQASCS

Structure (SMILES) | EC50 (GLP1R [1]) [nM] | Bmax (POC) (GLP1R [2]) | Bmax (POC) (GLP1R [3]) | also measured
N#Cc1ccc(COc2nccc(N3CCN(Cc4nc5ccc(C(=O)O)cc5n4C[C@@H]4CCO4)CC3)n2)c(F)c1 [Compound 10, (S)-2-((4-(2-((4-cyano-2-fluorobenzyl)oxy)pyrimidin-4-yl)piperazin-1-yl)methyl)-1-(oxetan-2-ylmethyl)-1H-benzo[d]imidazole-6-carboxylic acid] | ≤ 150 | 4.48 | – | –
O=C(O)c1ccc2nc(CN3CC=C(c4cccc(OCc5ccc(C(F)(F)F)cc5)n4)CC3)n(C[C@@H]3CCO3)c2c1 [Compound 46] | ≤ 15 | – | 27.4 | –
N#Cc1ccc(COc2cncc(N3CCN(Cc4nc5ccc(C(=O)O)cc5n4C[C@@H]4CCO4)CC3)n2)c(F)c1 [Compound 12, (S)-2-((4-(6-(4-cyano-2-fluorobenzyloxy)pyrazin-2-yl)piperazin-1-yl)methyl)-1-(oxetan-2-ylmethyl)-1 h-benzo[d]imidazole-6-carboxylic acid] | ≤ 15 | 9.66 | – | –
O=C(O)c1ccc2nc(CN3CCN(c4cncc(OCc5ccc(Cl)cc5F)n4)CC3)n(C[C@@H]3CCO3)c2c1 [Compound 11, (S)-2-((4-(6-(4-chloro-2-fluorobenzyloxy)pyrazin-2-yl)piperazin-1-yl)methyl)-1-(oxetan-2-ylmethyl)-1 h-benzo[d]imidazole-6-carboxylic acid] | ≤ 15 | 7.16 | – | –
N#Cc1ccc(COc2cccc(C3CCN(Cc4nc5ccc(C(=O)O)cc5n4C[C@@H]4CCO4)CC3)n2)c(F)c1 [Compound 418, reference compound] | – | – | – | Tmax [4, 5]: 1.7 h; bioavailability [4, 5]: 8.17%; AUC0-24 h ([4]; oral): 774 Arbitrary units; Cmax ([4]; oral): 232 Arbitrary unit; drop in plasma concentration ([4]; over about 24 hours post oral dosing): about 10 fold
O=C(O)c1ccc2nc(CN3CC=C(c4cccc(OCc5ccc(C(F)(F)F)nc5)n4)CC3)n(C[C@@H]3CCO3)c2c1 [Compound 45, (S)-1-(oxetan-2-ylmethyl)-2-((4-(6-((6-(trifluoromethyl)pyridin-3-yl)methoxy)pyridin-2-yl)-5,6-dihydropyridin-1(2H)-yl)methyl)-1 h-benzo[d]imidazole-6-carboxylic acid] | ≤ 15 | – | 19.1 | –
O=C(O)c1ccc2nc(CN3CCN(c4cccc(NCc5ccc(Cl)cc5F)n4)CC3)n(C[C@@H]3CCO3)c2c1 [Compound 1, (S)-2-((4-(6-(4-chloro-2-fluorobenzylamino)pyridin-2-yl)piperazin-1-yl)methyl)-1-(oxetan-2-ylmethyl)-1 h-benzo[d]imidazole-6-carboxylic acid] | ≤ 15 | 2.80 | – | –
Fc1cc(Cl)ccc1COc1cccc(C2=CCN(Cc3nc4ccc(-c5nnn[nH]5)cc4n3C[C@@H]3CCO3)CC2)n1 [Compound 105, (S)-2-((4-(6-(4-chloro-2-fluorobenzyloxy)pyridin-2-yl)-5,6-dihydropyridin-1(2H)-yl)methyl)-1-(oxetan-2-ylmethyl)-6-(1H-tetrazol-5-yl)-1H-benzo[d]imidazole] | ≤ 15 | – | 24.2 | –
CS(=O)(=O)NC(=O)c1ccc2nc(CN3CC=C(c4cccc(OCc5ccc(Cl)cc5F)n4)CC3)n(C[C@@H]3CCO3)c2c1 [Compound 47, (S)-2-((4-(6-(4-chloro-2-fluorobenzyloxy)pyridin-2-yl)-5,6-dihydropyridin-1(2H)-yl)methyl)-N-(methylsulfonyl)-1-(oxetan-2-ylmethyl)-1 h-benzo[d]imidazole-6-carboxamide] | ≤ 15 | – | 22.8 | –
O=C(O)c1ccc2nc(CN3CCN(c4ccnc(OCc5ccc(Cl)cc5F)n4)CC3)n(C[C@@H]3CCO3)c2c1 [Compound 9, (S)-2-((4-(2-((4-chloro-2-fluorobenzyl)oxy)pyrimidin-4-yl)piperazin-1-yl)methyl)-1-(oxetan-2-ylmethyl)-1H-benzo[d]imidazole-6-carboxylic acid] | ≤ 15 | – | 27.03 | –
